Measurements as given in article PMC3984256, “A PCNA-Derived Cell Permeable Peptide Selectively Inhibits Neuroblastoma Cell Growth” (PLoS ONE, 2014).
pIC50: −log10 of the molar value. “Also recorded” adds a separate entry of the source. Where a SMILES comes first, the peptide text is derived from it. [ ]: non-standard residue; d: D form.

Experiments:
[1] = tested on: HR-mediated DSB repair, U2OS-derived DR-GFP cells; assay: DSB repair reporter assay, HR (DR-GFP); assay type: cell-based; details: 30 µM, GFP-positive cells 3 d after I-SceI transfection, normalized to R9-srbPep, triplicates
Procedure: (§1) The plasmid pCBASce expresses the rare cutting I-SceI meganuclease. The U2OS-derived cell lines, DR-GFP, EJ5-GFP, and SA-GFP contain a stably transfected reporter gene for DSB repair mediated by HR, end joining (EJ), and single-strand annealing (SSA), respectively. These cell lines were cultured in DMEM medium with 10% FBS at 37°C in the presence of 5% CO2.
(§2) DR-GFP, EJ5-GFP, and SA-GFP cell lines were seeded at 2.5×10^4 cells/cm^2 in a 12-well plate. Once attached overnight, cells were transfected with 1.2 µg of the pCBASce I-SceI expression plasmid mixed with 3.6 µl of Lipofectamine 2000 (Invitrogen) in 200 µl of Optimem media (Invitrogen). After incubation for 3 h, the media containing transfection complexes was aspirated and replaced with fresh media containing 30 µM of the peptides. The HR, EJ, and SSA-mediated DSB repair, indicated by the restoration of a functional GFP gene in the respective cell lines, were quantified by measuring the relative abundance of GFP-positive cells by flow cytometry 3 d after transfection.

panel of NB cell lines = assay type: cell-based, human; details: 72 h
Procedure: The human NB cell lines, SK-N-DZ, SK-N-BE(2)c, SK-N-AS, SK-N-SH, and SK-N-FI were obtained from the American Type Culture Collection (Rockville, MD). Cells were maintained in DMEM with 10% fetal bovine serum (FBS), 100 units/ml penicillin, and 100 µg/ml streptomycin in the presence of 5% CO2 at 37°C. Human PBMCs from a healthy donor were purchased from Sanguine BioSciences (Valencia, CA) and grown in RPMI1640 with10% FBS, 100 units/ml penicillin, 100 µg/ml streptomycin, and 10 ng/ml IL-2 in the presence of 5% CO2 at 37°C. Human embryonic progenitor cell line 7SM0032 was acquired from Millipore (Billerica, MA) and grown in the hEPM-1 Media Kit purchased from the same company.
(§3) To measure cell growth, cells were seeded at 3×10^4/ml. After being allowed to attach overnight, cells were treated with various concentrations of the peptides for 72 h. Cell growth was measured by the CellTitor-Glo assay (Promega, Madison, WI) according to manufacturer's instruction. To measure apoptosis, cells were seeded at 1×10^5/ml onto a chamber slide. Once attached, cells were treated with the peptides for 48 h. Cells were fixed and analyzed by a TUNEL assay using the TMR red in situ cell death detection kit (Roche Diagnostics, Indianapolis, IN).

[2] = tested on: intracellular LIGI or FEN1 level; assay: Western blot of intracellular LIGI or FEN1 level (data not shown); assay type: cell-based
[3] = tested on: non-malignant 7SM0032 cells; assay: TUNEL apoptosis assay, 7SM0032; assay type: cell-based, human; details: 7SM0032, same treatment (40 µM, 48 h), vs NB cells
Procedure: as §3

[4] = tested on: PCNA and FEN1 co-localization in SK-N-AS NB cells; assay: PCNA/FEN1 co-localization, immunofluorescence; assay type: cell-based, human; details: synchronized, 30 µM peptide 6 h after mimosine release
Procedure: (§4) Cells were seeded at 1×10^5/ml onto a chamber slide and were allowed to attach overnight. To analyze the interaction of PCNA with FEN1, LIGI, or Pol ä, we first synchronize cells at the G1/S boundary. The synchronization is achieved by starving cells in medium containing 0.25% FBS for 24 h. Cells were further cultured in the complete medium containing 400 µM of mimosine for 24 h. To release cells into S phase, cells were washed and incubated in mimosine-free medium containing 30 µM R9-caPep or R9-srbPep for 6 h. We pre-determined that the majority of cells were in the S-phase 6 h after mimosine was removed (data not shown). Cells were fixed in ice-cold methanol:acetone (50%:50%) for 10 min or in 4% paraformaldehyde for 20 min at room temperature. Cells were incubated with a goat polyclonal anti-PCNA antibody (Santa Cruz) and a mouse monoclonal anti-FEN1 antibody (Santa Cruz), a mouse anti-POLD3 antibody (Sigma, St. Louis, MO), or a mouse anti-LIGI antibody (Abcam, Cambridge, MA) for 1 h at room temperature. After being washed with PBS, cells were incubated with Alexa Fluor 488 conjugated anti-mouse IgG and Alexa Fluor 555 conjugated anti-goat IgG antibodies (Invitrogen, Grand Island, NY) for 1 h. Cells were mounted in Vectashield with DAPI (Vector Labs, Burlingame, CA) and visualized by a confocal microscope.

synchronized cells = assay: Cell cycle analysis of synchronized cells within 6 h (data not shown); assay type: cell-based; details: 6 h after mimosine release
Procedure: Cells were seeded at 1×10^5/ml. Once attached, cells were treated with or without R9-caPep for 48 hours. Cells were fixed in 60% ethanol and stained with propidium iodide (PI). The cellular PI fluorescence intensity was determined by flow cytometry. The flow cytometry data were analyzed by the FlowJo program to model various cell populations.
as §4, with “After being washed with PBS, cells were incubated with Alexa Fluor 488 conjugated anti-mouse IgG and Alexa Fluor 555 conjugated anti-goat IgG antibodies (Invitrogen, Grand Island, NY) for 1 h. Cells were mounted in Vectashield with DAPI (Vector Labs, Burlingame, CA) and visualized by a confocal microscope.” left out

SK-N-BE(2)c cells [5] = assay: TUNEL apoptosis assay, SK-N-BE(2)c; assay type: cell-based, human; details: 40 µM, 48 h, six fields
Procedure: as §3

[6] = tested on: EJ-mediated DSB repair, U2OS-derived EJ5-GFP cells; assay: DSB repair reporter assay, EJ (EJ5-GFP); assay type: cell-based; details: 30 µM, GFP-positive cells 3 d after I-SceI transfection, normalized to R9-srbPep, triplicates
Procedure: as §1, §2

SK-N-BE(2)c cells [7] = assay: Clonogenic assay; assay type: cell-based, human; details: 3 dishes averaged
Procedure: Three hundred fifty SK-N-BE(2)c cells were seeded onto a 60-mm tissue culture dish. Once attached overnight, cells were treated with or without cisplatin for 2 h. Cells were washed twice with growth medium and were cultured in fresh medium with or without R9-caPep for 3 weeks to allow colony formation. The medium was changed every 3 d. The colonies formed under each treatment conditions were counted after being stained with 0.5% crystal violet.

[8] = tested on: SK-N-BE(2)c cells, DNA synthesis; assay: BrdU incorporation assay; assay type: cell-based, human; details: peptide 7.5 h then 10 µM BrdU 30 min, vs R9-srbPep, triplicates
Procedure: SK-N-BE(2)c cells were treated with the peptides for 7.5 h and then incubated in 10 ìmol/L BrdU for an additional 30 min in the continuous presence of the peptides. Cells were detached with trypsin and fixed in Cytofix/Cytoperm buffer according to the manufacturer's instructions (BD Bioscience, San Jose, CA). Fixed cells were treated with DNase to expose incorporated BrdU and stained with FITC-conjugated anti-BrdU antibody (BD Bioscience) for 1 h at room temperature. Samples were analyzed by flow cytometry to quantify the amount of BrdU incorporation. Percentages of FITC-positive cells were determined by analysis with the FlowJo software. Statistical analysis was conducted using a two-tailed t-test.

## CC[C@H](C)[C@H](NC(=O)CNC(=O)[C@H](CC(C)C)NC(=O)[C@H](CS)NC(=O)[C@H](CS)NC(=O)[C@@H](CCCNC(=N)N)NC(=O)[C@@H](CCCNC(=N)N)NC(=O)[C@@H](CCCNC(=N)N)NC(=O)[C@@H](CCCNC(=N)N)NC(=O)[C@@H](CCCNC(=N)N)NC(=O)[C@@H](CCCNC(=N)N)NC(=O)[C@@H](CCCNC(=N)N)NC(=O)[C@@H](CCCNC(=N)N)NC(=O)[C@H](N)CCCNC(=N)N)C(=O)N1CCC[C@H]1C(=O)N[C@@H](CCC(=O)O)C(=O)N[C@@H](CCC(N)=O)C(=O)N[C@@H](CCC(=O)O)C(=O)N[C@@H](Cc1ccc(O)cc1)C(=O)O [R9-caPep] (H-[dR][dR][dR][dR][dR][dR][dR][dR][dR]CCLGIPEQEY-OH; N-terminus and C-terminus assumed)
[1]
  HR-mediated DNA repair: significantly inhibited HR-mediated DNA repair
Panel of NB cell lines
  pIC50: 4.49 to 5.00
Panel of NB cell lines; CellTiter-Glo
  sensitivity of MYCN-amplified vs. non-amplified NB cell lines: NB cell lines with MYCN amplification were uniformly more sensitive to R9-caPep than NB cell lines without MYCN amplification
[2]
  intracellular LIGI or FEN1 level: didn't affect intracellular LIGI or FEN1 level
[3]
  effect on cell survival in non-malignant cells: significantly less effect on cell cycle progression and cell survival
[4]
  FEN1 co-localization with PCNA foci: didn't appear to overlap the PCNA foci
Synchronized cells
  cell cycle progress within 6 h: neither peptide significantly affected cell cycle progress within 6 h
SK-N-BE(2)c cells [5]
  apoptosis: TUNEL positivity: increased TUNEL positivity
[6]
  EJ-mediated DNA repair: only small effects on EJ or SSA; also recorded: little effect on the EJ pathway
SK-N-BE(2)c cells [7]; 1 µM cisplatin 2 h, then 20 µM R9-caPep 3 weeks
  reduction of number of colonies, sequential cisplatin then R9-caPep: about 80%
SK-N-BE(2)c cells [7]; R9-caPep alone 20 µM 3 weeks, or cisplatin alone 1 µM 2 h
  reduction of number of colonies, single agent: less than 30%
[8]
  percentage of BrdU-positive cells: significant reduction in the percentage of BrdU-positive cells
